For 27 compounds, IC50 results are on record in US11524966B1 (Valo Early Discovery, Inc., priority 2017, dated 2022).

The target in the assay is T1, USP25 (USP25-His6, Boston Biochem E-546) (Homo sapiens, UniProt Q9UHP3).
T1 construct: His6; purchased Boston Biochem E-546
T1 sequence (Q9UHP3 1-1055): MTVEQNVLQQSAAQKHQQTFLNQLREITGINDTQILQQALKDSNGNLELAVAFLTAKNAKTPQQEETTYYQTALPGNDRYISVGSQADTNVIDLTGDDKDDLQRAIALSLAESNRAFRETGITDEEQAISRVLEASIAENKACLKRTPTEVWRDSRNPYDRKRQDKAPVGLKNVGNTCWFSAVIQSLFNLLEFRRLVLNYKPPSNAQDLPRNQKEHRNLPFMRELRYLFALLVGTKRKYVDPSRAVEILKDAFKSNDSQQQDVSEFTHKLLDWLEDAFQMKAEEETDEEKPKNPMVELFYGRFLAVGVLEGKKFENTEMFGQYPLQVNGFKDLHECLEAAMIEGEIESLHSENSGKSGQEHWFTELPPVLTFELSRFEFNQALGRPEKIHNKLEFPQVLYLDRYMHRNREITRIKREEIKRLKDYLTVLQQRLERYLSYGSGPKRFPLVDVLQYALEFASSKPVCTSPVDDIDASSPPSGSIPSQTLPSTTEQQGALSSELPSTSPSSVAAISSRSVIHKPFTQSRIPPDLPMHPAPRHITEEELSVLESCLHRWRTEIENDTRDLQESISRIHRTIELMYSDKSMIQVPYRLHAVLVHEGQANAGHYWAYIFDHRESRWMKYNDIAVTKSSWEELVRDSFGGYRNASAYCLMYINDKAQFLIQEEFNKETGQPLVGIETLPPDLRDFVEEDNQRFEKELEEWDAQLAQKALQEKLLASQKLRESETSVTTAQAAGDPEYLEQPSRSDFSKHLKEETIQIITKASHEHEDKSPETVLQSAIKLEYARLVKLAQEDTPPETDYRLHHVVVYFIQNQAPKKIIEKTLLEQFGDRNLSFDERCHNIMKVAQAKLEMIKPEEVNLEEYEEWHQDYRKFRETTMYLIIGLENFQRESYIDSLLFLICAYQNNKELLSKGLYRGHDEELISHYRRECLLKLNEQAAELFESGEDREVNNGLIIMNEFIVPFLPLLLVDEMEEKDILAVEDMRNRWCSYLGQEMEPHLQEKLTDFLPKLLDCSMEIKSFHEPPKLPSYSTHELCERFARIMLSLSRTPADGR
Nature of the assay: Ubiquitin-Rhodamine 110 Assay for USP25 Activity, Example A-2. The class given is biochemical. As to conditions: Ubiquitin-Rhodamine 110 assay, Example A-2; read-out: USP25 A-2 IC50 range. Summed up: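 Cleavage of ubiquitin-rhodamine 110 (25 nM, well below Km) by His-tagged USP25 at 75 pM is measured fluorimetrically after 45 min at room temperature and acid quench. Inhibitors are preincubated with enzyme for 30 minutes. IC50 values come from four-parameter logistic curve fitting.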
For the compound `O=C(N[C@H]1COc2cc(N3CCNCC3)ccc2C1)c1cnn2ccccc12` [Example 460, (R)-N-(7-(piperazin-1-yl)chroman-3-yl)pyrazolo[1,5-a]pyridine-3-carboxamide], the half-maximal inhibitory concentration (IC50) is greater than 2000 nM. As for `Cc1ccc2c(N)c(C(=O)N[C@H]3COc4cc(N5C[C@@H](N)[C@H](OC(F)(F)F)C5)ccc4C3)sc2n1` (single isomer, unassigned) [Example 3-9], the figure is 200 to 2000 nM. As for `Cc1ccc2c(N)c(C(=O)N[C@H]3COc4cc(N5CCC(C(=O)O)CC5)ccc4C3)sc2n1` [Example 6-1, (R)-1-(3-(3-Amino-6-methylthieno[2,3-b]pyridine-2-carboxamido)chroman-7-yl)piperidine-4-carboxylic Acid], the figure is greater than 2000 nM; as for `Cc1ccc2c(N)c(C(=O)N[C@H]3COc4cc(N5C[C@@H](N)CC56COC6)ccc4C3)sc2n1` (single isomer, unassigned) [Example 352], 50 to 200 nM; as for `Cc1cnc2c(N)c(C(=O)N[C@H]3CCc4cc(N5CCCNCC5)ccc4C3)sc2n1` [Example 455, (S)-N-(6-(1,4-diazepan-1-yl)-1,2,3,4-tetrahydronaphthalen-2-yl)-7-amino-3-methylthieno[2,3-b]pyrazine-6-carboxamide], 200 to 2000 nM.

With `O=C(N[C@H]1COc2cc(N3CCNCC3)ccc2C1)c1ccc(NCc2cccc(C(F)(F)F)c2)nc1` [Example 469, (R)-N-(7-(piperazin-1-yl)chroman-3-yl)-6-((3-(trifluoromethyl)benzyl)amino)nicotinamide], the IC50 lay within 50 to 200 nM. As for `Cc1cc(C)c2c(N)c(C(=O)N[C@H]3CCc4nc(N5CC6CCC(C5)N6)ccc4C3)sc2n1` [Example 354, 3-amino-N-[(6S)-2-{3,8-diazabicyclo[3.2.1]octan-3-yl}-5,6,7,8-tetrahydroquinolin-6-yl]-4,6-dimethylthieno[2,3-b]pyridine-2-carboxamide], the figure is 200 to 2000 nM; as for `O=C(N[C@@H]1CCc2c(c(F)cc(N3CC4CCC(C3)N4)c2C(F)F)C1)c1cnc2c(c1)[C@H]1C[C@H]1CN2` (single isomer, unassigned) [Example 362], 200 to 2000 nM. For `Cc1ccc2c(N)c(C(=O)N[C@H]3COc4c(cc(F)c(N5CCNCC5)c4F)C3)sc2n1` (single isomer, unassigned) [Example 3-17] the value was 50 to 200 nM; for `CC(=O)N1CCCc2cc(C(=O)N[C@H]3COc4cc(N5CCNCC5)ccc4C3)ccc21` [Example 459, (R)-1-acetyl-N-(7-(piperazin-1-yl)chroman-3-yl)-1,2,3,4-tetrahydroquinoline-6-carboxamide], greater than 2000 nM; for `Cc1ccc2c(N)c(C(=O)N[C@H]3CCc4cc(N5CCNCC5)c(F)c(F)c4C3)sc2n1` [Example 417, 3-amino-N-[(2S)-7,8-difluoro-6-(piperazin-1-yl)-1,2,3,4-tetrahydronaphthalen-2-yl]-6-methylthieno[2,3-b]pyridine-2-carboxamide], greater than 2000 nM. For `Cc1cnc2c(N)c(C(=O)N[C@H]3CCc4cc(N5CC6COCC(C5)N6)ccc4C3)sc2n1` [Example 456, N-((2S)-6-(3-oxa-7,9-diazabicyclo[3.3.1]nonan-7-yl)-1,2,3,4-tetrahydronaphthalen-2-yl)-7-amino-3-methylthieno[2,3-b]pyrazine-6-carboxamide], the IC50 was greater than 2000 nM. Regarding `O=C(N[C@H]1CCc2c(c(F)cc(N3CC4CCC(C3)N4)c2C(F)F)C1)c1cnc2c(c1)[C@@H]1C[C@@H]1CN2` (single isomer, unassigned) [Example 359], the IC50 was greater than 2000 nM. As for `Cc1ccc2c(N)c(C(=O)N[C@@H]3CCc4cc(N5CCNCC5)c(F)c(F)c4C3)sc2n1` [Example 418, 3-amino-N-[(2R)-7,8-difluoro-6-(piperazin-1-yl)-1,2,3,4-tetrahydronaphthalen-2-yl]-6-methylthieno[2,3-b]pyridine-2-carboxamide], the figure is 200 to 2000 nM; as for `Cc1cnc2c(N)c(C(=O)N[C@H]3CCc4cc(N5CC6CNCC(C5)O6)ccc4C3)sc2n1` [Example 448, N-((2S)-6-(9-oxa-3,7-diazabicyclo[3.3.1]nonan-3-yl)-1,2,3,4-tetrahydronaphthalen-2-yl)-7-amino-3-methylthieno[2,3-b]pyrazine-6-carboxamide], 200 to 2000 nM; as for `O=C(N[C@@H]1CCc2c(c(F)cc(N3CC4CCC(C3)N4)c2C(F)F)C1)c1cnc2c(c1)[C@@H]1C[C@@H]1CN2` (single isomer, unassigned) [Example 361], greater than 2000 nM. For `Cc1cnc2c(N)c(C(=O)N[C@H]3CCc4nc(N5C[C@H](N)C6(COC6)C5)ccc4C3)sc2n1` [Example 365, 7-amino-N-[(6S)-2-[(8R)-8-amino-2-oxa-6-azaspiro[3.4]octan-6-yl]-5,6,7,8-tetrahydroquinolin-6-yl]-3-methylthieno[2,3-b]pyrazine-6-carboxamide], the half-maximal inhibitory concentration (IC50) fell in the range of 200 to 2000 nM.

With `Cc1ccc2c(N)c(C(=O)N[C@H]3CCc4nc(N5C[C@H](N)[C@]6(CCCO6)C5)ccc4C3)sc2n1` [Example 390, 3-amino-N-[(6S)-2-[(5S,9S)-9-amino-1-oxa-7-azaspiro[4.4]nonan-7-yl]-5,6,7,8-tetrahydroquinolin-6-yl]-6-methylthieno[2,3-b]pyridine-2-carboxamide], the half-inhibitory concentration (IC50) was greater than 2000 nM. `O=C(N[C@H]1CCc2c(c(F)cc(N3CC4CCC(C3)N4)c2C(F)F)C1)c1cnc2c(c1)[C@H]1C[C@H]1CN2` (single isomer, unassigned) [Example 360]: the IC50 lay within 200 to 2000 nM.

In the case of `O=C(N[C@H]1COc2cc(N3CCNCC3)ccc2C1)c1cnn2c(CO)cccc12` [Example 475, 7-(hydroxymethyl)-N-[(3R)-7-(piperazin-1-yl)-3,4-dihydro-2H-1-benzopyran-3-yl]pyrazolo[1,5-a]pyridine-3-carboxamide], the half-inhibitory concentration (IC50) is greater than 2000 nM.

Consider `Cc1ccc2c(N)c(C(=O)N[C@H]3COc4cc(N5CC[C@]6(CCCNC6)C5)ccc4C3)sc2n1` [Example 3-13, N-((R)-7-((S)-2,7-diazaspiro[4.5]decan-2-yl)chroman-3-yl)-3-amino-6-methylthieno[2,3-b]pyridine-2-carboxamide], for which the IC50 is 200 to 2000 nM. For `Cc1cc(C)n2ncc(C(=O)N[C@H]3COc4cc(N5CCNCC5)ccc4C3)c2n1` [Example 463, (R)-5,7-dimethyl-N-(7-(piperazin-1-yl)chroman-3-yl)pyrazolo[1,5-a]pyrimidine-3-carboxamide] the value was greater than 2000 nM; for `Cc1ccc2c(N)c(C(=O)N[C@H]3CCc4nc(N5C[C@H](N)[C@H](OC(C)(F)F)C5)ccc4C3)sc2n1` [Example 357, 3-amino-N-[(6S)-2-[(3S,4R)-3-amino-4-(1,1-difluoroethoxy)pyrrolidin-1-yl]-5,6,7,8-tetrahydroquinolin-6-yl]-6-methylthieno[2,3-b]pyridine-2-carboxamide], 200 to 2000 nM. As for `Cc1ccc2c(N)c(C(=O)N[C@H]3COc4cc(N5CC[C@@H](C(=O)O)C5)ccc4C3)sc2n1` [Example 6-2, (R)-1-((R)-3-(3-amino-6-methylthieno[2,3-b]pyridine-2-carboxamido)chroman-7-yl)pyrrolidine-3-carboxylic acid], the figure is greater than 2000 nM; as for `Cc1cnc2c(N)c(C(=O)N[C@H]3CCc4nc(N5C[C@@H](N)C6(COC6)C5)ccc4C3)sc2n1` [Example 366, 7-amino-N-[(6S)-2-[(8S)-8-amino-2-oxa-6-azaspiro[3.4]octan-6-yl]-5,6,7,8-tetrahydroquinolin-6-yl]-3-methylthieno[2,3-b]pyrazine-6-carboxamide], greater than 2000 nM; as for `Cc1ccc2c(N)c(C(=O)N[C@H]3COc4cc(N5CCS(=O)(=O)CC5)ccc4C3)sc2n1` [Example 5-2, (R)-3-amino-N-(7-(1,1-dioxidothiomorpholino)chroman-3-yl)-6-methylthieno[2,3-b]pyridine-2-carboxamide], 50 to 200 nM. For `Cc1ccc2c(N)c(C(=O)N[C@H]3CCc4nc(N5C[C@@H](N)[C@@H](OC(C)(F)F)C5)ccc4C3)sc2n1` [Example 358, 3-amino-N-[(6S)-2-[(3R,4S)-3-amino-4-(1,1-difluoroethoxy)pyrrolidin-1-yl]-5,6,7,8-tetrahydroquinolin-6-yl]-6-methylthieno[2,3-b]pyridine-2-carboxamide] the value was greater than 2000 nM.

The IC50 is the concentration that gives 50% inhibition.
